Assay results: patent publication US8957056B2, “Migrastatin analogs in the treatment of cancer” (Sloan-Kettering Instiute for Cancer Research, priority 2004, dated 2015)

Columns and labels:
[1] = test system: mouse breast tumor cells (4T1 cells); experiment: Boyden chamber cell migration assay, 4T1; type: cell-based; details: 4T1 tumor cells, 6-8 hours; read-out: IC50 value, chamber cell migration assay
[2] = Mouse blood plasma stability; details: test period one hour
Description: The biological evaluation of the compounds (in terms of their ability to inhibit cell migration) was accomplished in a Boyden chamber cell migration assay. In this assay, mouse breast tumor cells (4T1 cells) or endothelial cells (HUVECs) are seeded on the upper chamber of a transwell insert. Growth factor-containing serum is added to the lower chamber.
In anticipation of subsequent in vivo evaluation of these compounds and others, preliminary metabolic stability studies were carried out. […] As a test of the ‘deactivation hypothesis’, the hydrolysis product of macrolactone 48 was prepared (Scheme 27) and tested for its activity against tumor cell migration.

[3] = test system: human breast cancer cell line MDA MB435; experiment: Chamber cell migration assay, MDA MB435; type: cell-based; details: highly metastatic human breast cancer cell line
Description: Cell migrations were assayed with 8 μm of microporous 6.5-mm transwell plates (Corning). 200 μl of 2×10^5 cells in serum-free RPMI1640 medium containing 0.5% BSA were added to the upper chamber and 600 μl of medium with 10% fetal bovine serum was added to the lower chamber. […] Cells migrated to the lower wells were collected and counted for liquid tumors, solid tumors were processed as previously described.^28 Data shown are representative of at least three experiments.

[4] = test system: human colon cancer cell line HT 29; experiment: Wound healing (scratch) assay, HT 29; type: cell-based; set-up: key: successful (+); unsuccessful (−) inhibition of cell migration; details: 10X IC50: 48 (240 nM), 55 (1000 nM), 60 (2550 nM); 24 and 48 h
Description: (§1) The human ovarian cancer cell lines Ovcar3 and IGROV were grown in M5 media. The colon cell lines HT 29 and HCT 116 were cultivated in DMEM containing 10% FCS in a humidified environment at 37° C. Myeloma cell lines CAG (obtained from The Myeloma Institute for Research and Therapy, University of Arkansas) and RPMI8226 as well as lymphoma cell line RL were maintained at RPMI1640 medium containing 10% FCS. All cell lines were acquired from the ATCC if not otherwise stated.
(§2) The tumor cells were seeded into 24-multiwell plates (Becton-Dickinson) and cultivated until the cells formed a confluent monolayer. Wounds were set by horizontally scratching the monolayer with a sterile pipette tip. The cells were thereafter washed twice with Phosphate Buffered Saline (PBS) to remove detached cells. Growth media was then added containing different concentrations of the chemical compound and incubated at 37° C. […] The cells were photographed at the beginning of the experiment and after 24 and 48 h to assess the progression of cell migration into the wound.

[5] = test system: colon cell line HCT 116; experiment: Wound healing (scratch) assay, HCT 116; type: cell-based, human; set-up: key: successful (+); unsuccessful (−) inhibition of cell migration; details: 10X IC50: 48 (240 nM), 55 (1000 nM), 60 (2550 nM); 24 and 48 h
Description: as §1, §2

[6] = test system: human ovarian cancer cell line IGROV; experiment: Wound healing (scratch) assay, IGROV; type: cell-based; set-up: key: successful (+); unsuccessful (−) inhibition of cell migration; details: 10X IC50: 48 (240 nM), 55 (1000 nM), 60 (2550 nM); 24 and 48 h
Description: as §1, §2

[7] = test system: human ovarian cancer cell line Ovcar3; experiment: Wound healing (scratch) assay, Ovcar3; type: cell-based; set-up: key: successful (+); unsuccessful (−) inhibition of cell migration; details: 10X IC50: 48 (240 nM), 55 (1000 nM), 60 (2550 nM); 24 and 48 h
Description: as §1, §2

[8] = test system: human breast cancer cell line MDA MB435; experiment: Wound healing (scratch) assay, MDA MB435; type: cell-based; set-up: key: successful (+); unsuccessful (−) inhibition of cell migration; details: 10X IC50: 48 (240 nM), 55 (1000 nM), 60 (2550 nM); 24 and 48 h
Description: as §2

[9] = test system: CAG cells; experiment: CAG cell proliferation assay (XTT); type: cell-based, human; details: printed in the legend on CAG cell proliferation; read-out: IC50 (legend of FIG. 3)
Description: In the last 20 hours, sodium 3′-[1-(phenylamino-carbonyl)-3,4-tetrazolium]-bis(4-methoxy-6-nitro) benzene sulfonic acid hydrate (XTT) was added and optical absorbance at 490 nm were measured. As reference wavelength 650 nm was used. […] The result was expressed as percentage of the control.

[10] = test system: SKOV; experiment: Cell proliferation and viability assay (XTT), SKOV; type: cell-based, human; details: 72 h in total, no morphological sign of apoptosis or cell death
Description: (§3) Cell proliferation and viability measurement were assessed by a colorimetric assay using sodium 39-(phenylaminocarbonyl)-3,4-tetrazolium-bis(4-methoxy-6-nitro) benzene sulfonic acid hydrate (XTT, Sigma, St. Louis, Mo.), and phenazine methosulphate (PMS, Sigma, St. Louis, Mo.). Cells from indicated lines were plated at 5˜10×10×10^3/well in 96 well plates in the presence of different concentration of compounds for 52 hrs. Then 50 μL of XTT/PMS mixture was added to each well and incubated for an additional 20 hrs at 37° C. Plate absorbance was measured directly at optical density of 490 nm (reference wavelength at 650 nm) in an ELISA reader (Thermo Max Microplate Reader, Molecular Devices, CA). The data was expressed as the mean of readings obtained in wells with treatment with subtraction of the reading with vehicle control. The total metabolic activity, which correspond to the number of living cells directly correlate to the amount of orange formazan formed in a cell. The result is expressed as percentage of the control.

[11] = test system: HT29; experiment: Cell proliferation and viability assay (XTT), HT29; type: cell-based, human; details: 72 h in total, no morphological sign of apoptosis or cell death
Description: as §3

[12] = test system: IGROV; experiment: Cell proliferation and viability assay (XTT), IGROV; type: cell-based, human; details: 72 h in total, no morphological sign of apoptosis or cell death
Description: as §3

[13] = test system: HCT116; experiment: Cell proliferation and viability assay (XTT), HCT116; type: cell-based, human; details: 72 h in total
Description: as §3

[14] = test system: Ovcar3; experiment: Cell proliferation and viability assay (XTT), Ovcar3; type: cell-based, human; details: 72 h in total
Description: as §3

[15] = test system: Ovcar4; experiment: Cell proliferation and viability assay (XTT), Ovcar4; type: cell-based, human; details: 72 h in total
Description: as §3

[16] = test system: human ovarian tumor cell line OVCAR3; experiment: In vivo metastatic ovarian xenograph model (OVCAR3 HSV-TK/eGFP/FLuc); set-up: species or system mouse
From the text: The human ovarian tumor cell line OVCAR3 was transduced with a triple fusion gene HSV-TK/eGFP/FLuc, expressing thymidine kinase, enhanced green fluorescence protein and firefly luciferase. Whole animal imaging by luciferase bioluminescence (FIGS. 7A & B), allowed identification and quantification of disseminated tumor. We quantified the tumor burden in each organ, by sacrificing the mouse shortly after luciferin injecting and imaging of the dissected organs (lung, liver and spleen) (FIG. 8). In all instances tumor engraftment was initiated with 1-5×10^7 cells and the recipients received 3 Gy irradiation 10 days before tumor engraftment. These tumor cells generated bulky omental metastases with diffuse microscopic peritoneal carcinomatosis causing ascites (FIG. 9), significant pleural effusion with diffuse macroscopic peritoneal carcinomatosis and liver, lung and paraaortic metastases.
Treatment was initiated once primary tumor was well established. Animals were imaged at weekly intervals to monitor tumor growth and location of metastases (imaging sensitivity 200-500 cells).

[17] = test system: human colon cancer cells (HT29); experiment: Microarray analysis of treated HT29 cells; type: cell-based; details: 500 nM, 6 h and 18 h
Description: (§4) For the microarray comparison (Affymetrix chip -AU133 plus) human ovarian cancer cells (Ovcar3) and human colon cancer cells (HT29) were treated with 500 nM DMC (48) for 6 h and 18 h or left untreated. A large panel of up and down regulated genes were detected including a broad array of motility, cell shape and chemotaxis genes (FIG. 17).

[18] = test system: human ovarian cancer cells Ovcar3; experiment: Immunofluorescence staining of treated Ovcar3 cells; type: cell-based; details: 500 nM
Description: as §4
Ovcar3 cells in exponential growth phase were seeded into 24 well plates at 2×10^4/ml in the presence of 500 nM of DMC (48). […] At the time of staining, cells were pre-blocked at room temperature in PBS with 3% BSA and 0.2% Na-azide. After washing, the cells were then incubated with indicated monoclonal antibody (FIG. 18), diluted 1:200 in 1.5% blocking serum, at 37° C. Cells were washed again and incubated with anti-mouse-Alexa red secondary antibody in the dark at 37° C. Cells were then counter-stained with 4,6-diamidino-2-phenylindole (DAPI) at 0.2 μg/ml PBS.

[19] = 40 mg/kg three times a week for 10 treatments
[20] = daily injection of 40 mg/kg i.p.

For `CO[C@H]1/C=C/CCCCC(=O)OC/C(C)=C\[C@@H](C)[C@@H]1O` [Compound 48, Macrolactone], the IC50 [1] was 24 nM, the “metabolic stability in mouse blood plasma” value [2] was “hydrolyzed rapidly” and the “response of MDA MB435 to the compound” value [3] was “responded only slightly”. For the same compound, the “inhibition of cell migration, wound healing assay, HT 29” value [4] was “+”, the “inhibition of cell migration, wound healing assay, HCT 116” value [5] was “+” and the “inhibition of cell migration, wound healing assay, IGROV” value [6] was “+”. For the same compound, the “inhibition of cell migration, wound healing assay, Ovcar3” value [7] was “+”, the “inhibition of cell migration, wound healing assay, MDA MB435” value [8] was “+” and the IC50 [9] was 24 nM. The “effect on proliferation, SKOV” value [10] was “inhibition of proliferation”, the “effect on proliferation, HT29” value [11] was “inhibition of proliferation” and the “effect on proliferation, IGROV” value [12] was “inhibition of proliferation”. The “effect on proliferation, HCT116” value [13] was “uninfluenced”, the “effect on proliferation, Ovcar3” value [14] was “uninfluenced” and the “effect on proliferation, Ovcar4” value [15] was “uninfluenced”. For the same compound, the “reduction of metastasis for liver” value [16, 19] was 80%, the “reduction of metastasis in lung and spleen” value [16, 19] was “highly significant reduction” and the “treated mice that had ascitis” value ([16]; FIG. 9, 4 out of 4 control mice had ascitis) was 1 out of 4. The “survival” value [16, 20] was “increase of survival”, the “total tumor mass” value [16, 20] was “reduction of the total tumor mass” and the “mice with inhibition of ascitis at the endpoint” value ([16]; daily injection of 40 mg/kg i.p., all control mice developed ascites) was 3 out of 4. The “E-cadherin expression, micro array” value [17] was “upregulation”, the “Integrin α2 and CD44, immunofluorescent microscopy” value [18] was “Upregulated” and the “β-tubulin, immunofluorescent microscopy” value ([18]; after 6 h or 24 h) was “did not show any modulations”.
